In patent publication US11986471B2, “Compounds and methods of use” (Tango Therapeutics, Inc., priority 2018, dated 2024):

What was measured:
PRMT5 [1] = target: T1, PRMT5 (Homo sapiens, UniProt O14744); assay: PRMT5 IC50 assay with no cofactor; assay type: biochemical
T1 construct: purchased Viva (custom protein)
How it was run: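 Potency against PRMT5 is compared across cofactor states, where IC50 equals Ki×1.5 with SAM present and Ki×13.5 with MTA present.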

PRMT5 [2] = target: T1, PRMT5; assay: PRMT5 IC50 assay in the presence of SAM as cofactor; assay type: biochemical
How it was run: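 Human PRMT5 inhibition, IC50 in μM; cofactor varied (SAM / MTA / none).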

HAP1 MTAP-deleted = assay: SDMA in-cell western assay, HAP1 MTAP-deleted cell line; assay type: cell-based; conditions: for IC50: Homo sapiens, HAP1 MTAP-deleted cell line; for MTAP Intact/Deleted Ratio: IC50 ratio HAP1 MTAP-intact / HAP1 MTAP-deleted
How it was run: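 MTAP-null HAP1 cells, the deleted member of an isogenic pair with endogenously MTAP-expressing HAP1, are treated with compound. SDMA is then quantified by in-cell western and an IC50 is calculated.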

HAP1 MTAP-intact = assay: SDMA in-cell western assay, HAP1 MTAP-intact cell line; assay type: cell-based; conditions: Homo sapiens
How it was run: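 Cells from two matched HAP1 lines, MTAP-null and MTAP-expressing at endogenous levels, are treated with compound. SDMA is then quantified by in-cell western and an IC50 is calculated for each line.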

PRMT5 [3] = target: T1, PRMT5; assay: PRMT5 IC50 assay in the presence of MTA as cofactor; assay type: biochemical; conditions: for IC50: PRMT5, MTA as cofactor
How it was run: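 Each compound is tested on PRMT5 in the presence of SAM, of MTA, and without any cofactor. Ki values are then back-calculated using fixed factors of 1.5 (SAM) and 13.5 (MTA), and the two Ki values are compared as a ratio.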

[4] = ratio between Ki in the presence of SAM and Ki in the presence of MTA
[5] = ratio between the Ki in the presence of SAM and the Ki in the presence of MTA

T1 sequence (O14744 whole entry): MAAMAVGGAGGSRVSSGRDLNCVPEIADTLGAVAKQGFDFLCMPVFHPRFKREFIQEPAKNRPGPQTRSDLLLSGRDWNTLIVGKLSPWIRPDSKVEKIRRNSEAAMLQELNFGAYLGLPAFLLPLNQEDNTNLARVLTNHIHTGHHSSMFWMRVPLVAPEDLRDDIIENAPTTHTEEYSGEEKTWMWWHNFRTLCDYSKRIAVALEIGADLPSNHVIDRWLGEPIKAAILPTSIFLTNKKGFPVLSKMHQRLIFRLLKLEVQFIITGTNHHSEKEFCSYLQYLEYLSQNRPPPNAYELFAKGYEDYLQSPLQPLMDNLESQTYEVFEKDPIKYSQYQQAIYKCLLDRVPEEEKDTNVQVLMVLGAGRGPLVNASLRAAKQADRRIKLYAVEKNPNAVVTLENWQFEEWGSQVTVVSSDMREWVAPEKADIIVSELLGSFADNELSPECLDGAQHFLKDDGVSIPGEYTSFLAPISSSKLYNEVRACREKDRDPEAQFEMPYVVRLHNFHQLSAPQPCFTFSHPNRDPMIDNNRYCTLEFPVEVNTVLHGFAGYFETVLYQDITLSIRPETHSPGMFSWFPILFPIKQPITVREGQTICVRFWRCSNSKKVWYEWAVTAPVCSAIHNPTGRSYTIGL
T1 sequence (Q9BQA1 whole entry partner): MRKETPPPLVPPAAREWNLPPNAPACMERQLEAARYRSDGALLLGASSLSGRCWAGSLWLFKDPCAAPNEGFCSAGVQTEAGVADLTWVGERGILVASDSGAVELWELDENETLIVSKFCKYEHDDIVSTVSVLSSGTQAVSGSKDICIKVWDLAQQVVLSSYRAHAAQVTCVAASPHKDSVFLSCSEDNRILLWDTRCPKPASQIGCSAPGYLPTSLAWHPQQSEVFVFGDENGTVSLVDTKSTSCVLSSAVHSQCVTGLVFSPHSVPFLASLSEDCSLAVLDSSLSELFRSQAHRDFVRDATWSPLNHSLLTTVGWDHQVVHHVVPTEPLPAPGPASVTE

Structure (SMILES) | IC50 (PRMT5 [1]; read-out: No Co-factor IC50) [nM] | IC50 (PRMT5 [2]) [nM] | IC50 (HAP1 MTAP-deleted) [nM] | MTAP Intact/Deleted Ratio (HAP1 MTAP-deleted) | IC50 (HAP1 MTAP-intact) [nM] | IC50 (PRMT5 [3]) [nM] | SAM/MTA Ratio (PRMT5 [3]; [4]) | IC50 (PRMT5 [1]) [nM] | SAM/MTA Ratio (PRMT5 [3]; [5])
O=C(NC[C@H](O)CN1CCc2cc(OCc3cnco3)ccc2C1)c1cccc(NC2CCC2)c1 [Compound 259, (S)-3-(cyclobutylamino)-N-(2-hydroxy-3-(6-(oxazol-5-ylmethoxy)-3,4-dihydroisoquinolin 2(1H)-yl)propyl)benzamide] | ≥ 5000 | 500 to 5000 | < 1000 | C* (an IC50 ratio of less than 3 fold between the IC50 in the HAP1 MTAP-intact cell line and the HAP1 MTAP-deleted cell line) | < 1000 | 500 to 5000 | A (a Ki ratio greater than or equal to 10 fold between the Ki in the presence of SAM and the Ki in the presence of MTA) |  | 
Cc1ncoc1COc1ccc2c(c1Cl)CCN(C[C@@H](O)CNC(=O)c1cccc(NC3COC3)c1)C2 [Compound 490, N-[(2S)-3-[5-chloro-6-[(4-methyl-1,3-oxazol-5-yl)methoxy]-1,2,3,4-tetrahydroisoquinolin-2-yl}-2-hydroxypropyl]-3-[(oxetan-3-yl)amino]benzamide] |  | 500 to 5000 | ≥ 10000 | C* (an IC50 ratio of less than 3 fold between the IC50 in the HAP1 MTAP-intact cell line and the HAP1 MTAP-deleted cell line) | ≥ 10000 | 500 to 5000 |  | ≥ 5000 | A (a Ki ratio greater than or equal to 10 fold between the Ki in the presence of SAM and the Ki in the presence of MTA)
Cc1ncoc1COc1ccc2c(c1)CCN(C[C@@H](O)CNC(=O)c1cccc(NC3COC3)c1)C2 [Compound 262, (S)—N-(2-hydroxy-3-(6-((4-methyloxazol-5-yl)methoxy)-3N-dihydroisoquinolin-2(1H)-yl)propyl)-3-(oxetan-3-ylamino)benzamide] | ≥ 5000 | 500 to 5000 | 1000 to 10000 | C* (an IC50 ratio of less than 3 fold between the IC50 in the HAP1 MTAP-intact cell line and the HAP1 MTAP-deleted cell line) | 1000 to 10000 | 50 to 500 | A (a Ki ratio greater than or equal to 10 fold between the Ki in the presence of SAM and the Ki in the presence of MTA) |  | 
O=C(NC[C@H](O)CN1CCc2cc(OCc3cnco3)ccc2C1)c1ccnc(Nc2cccnc2)c1 [Compound 399, (S)—N-(2-hydroxy-3-(6-(oxazol-5-ylmethoxy)-3N-dihydroisoquinolin-2(1H)-yl)propyl)-2-(pyridin-3-ylamino)isonicotinamide] | ≥ 5000 | 500 to 5000 | < 1000 | B* (an IC50 ratio greater than or equal to 3 fold but lower than 10 fold between the IC50 in the HAP1 MTAP-intact cell line and the HAP1 MTAP-deleted cell line) | 1000 to 10000 | 50 to 500 | A (a Ki ratio greater than or equal to 10 fold between the Ki in the presence of SAM and the Ki in the presence of MTA) |  | 
Cn1nccc1COc1ccc2c(c1Cl)CCN(C[C@@H](O)CNC(=O)c1ccnc(NC3CCCC3)c1)C2 [Compound 275, (S)—N-(3-(5-chloro-6-((1-methyl-1H-pyrazol-5-yl)methoxy)-3,4-dihydroisoquinolin-2(1H)-yl)-2-hydroxypropyl)-2-(cyclopentylamino)isonicotinamide] | ≥ 5000 | 500 to 5000 | ≥ 10000 | C* (an IC50 ratio of less than 3 fold between the IC50 in the HAP1 MTAP-intact cell line and the HAP1 MTAP-deleted cell line) | ≥ 10000 | 500 to 5000 | A (a Ki ratio greater than or equal to 10 fold between the Ki in the presence of SAM and the Ki in the presence of MTA) |  | 
CCN(C)c1nc(NC2COC2)cc(C(=O)NC[C@H](O)CN2CCc3cc(OCc4cnco4)ccc3C2)n1 [Compound 289] | 500 to 5000 | 50 to 500 | 1000 to 10000 | B* (an IC50 ratio greater than or equal to 3 fold but lower than 10 fold between the IC50 in the HAP1 MTAP-intact cell line and the HAP1 MTAP-deleted cell line) | 1000 to 10000 | 50 to 500 | A (a Ki ratio greater than or equal to 10 fold between the Ki in the presence of SAM and the Ki in the presence of MTA) |  | 
Cc1ncoc1COc1cc2c(cc1F)CN(C[C@@H](O)CNC(=O)c1ccnc(NC3CCC3)c1)CC2 [Compound 266, (S)-2-(cyclobutylamino)-N-(3-(7-fluoro-6-((4-methyloxazol-5-yl)methoxy)-3,4-dihydroisoquinolin-2(1H)-yl)-2-hydroxypropyl)isonicotinamide] | 500 to 5000 | 50 to 500 | 1000 to 10000 | B* (an IC50 ratio greater than or equal to 3 fold but lower than 10 fold between the IC50 in the HAP1 MTAP-intact cell line and the HAP1 MTAP-deleted cell line) | 1000 to 10000 | 50 to 500 | A (a Ki ratio greater than or equal to 10 fold between the Ki in the presence of SAM and the Ki in the presence of MTA) |  | 
Cc1ncoc1COc1ccc2c(c1)CCN(C[C@@H](O)CNC(=O)c1ccc(OC3CCN(Cc4ccccc4)CC3)cc1)C2 [Compound 392] | 500 to 5000 | 50 to 500 | < 1000 | C* (an IC50 ratio of less than 3 fold between the IC50 in the HAP1 MTAP-intact cell line and the HAP1 MTAP-deleted cell line) | < 1000 | 50 to 500 | A (a Ki ratio greater than or equal to 10 fold between the Ki in the presence of SAM and the Ki in the presence of MTA) |  | 
O=C(NC[C@H](O)CN1CCc2cc(OCc3cnco3)ccc2C1)c1ccnc(NC2CCCC2)c1 [Compound 407, (S)-2-(cxclopentylamino)-N-(2-hydroxy-3-(6-(oxazol-5-ylmethoxy)-3N-dihydroisoquinolin-2(1H)-yl)propyl)isonicotinamide] | ≥ 5000 | 50 to 500 | < 1000 | B* (an IC50 ratio greater than or equal to 3 fold but lower than 10 fold between the IC50 in the HAP1 MTAP-intact cell line and the HAP1 MTAP-deleted cell line) | < 1000 | 50 to 500 | A (a Ki ratio greater than or equal to 10 fold between the Ki in the presence of SAM and the Ki in the presence of MTA) |  | 
CC(=O)N1CCC(Nc2cc(C(=O)NC[C@H](O)CN3CCc4cc(OCc5ocnc5C)ccc4C3)ccn2)C(C)C1 (stereo partly drawn) [Compound 637, 2-((1-acetyl-3-methylpiperidin-4-yl)amino)-N—((S)-2-hydroxy-3-(6-((4-methyloxazol-5-yl)methoxy)-3,4-dihydroisoquinolin-2(1H)-yl)propyl)isonicotinamide] | ≥ 5000 | 50 to 500 | 1000 to 10000 | B* (an IC50 ratio greater than or equal to 3 fold but lower than 10 fold between the IC50 in the HAP1 MTAP-intact cell line and the HAP1 MTAP-deleted cell line) | 1000 to 10000 | 50 to 500 | A (a Ki ratio greater than or equal to 10 fold between the Ki in the presence of SAM and the Ki in the presence of MTA) |  | 
Cc1ncoc1COc1ccc2c(c1)CCN(C[C@@H](O)CNC(=O)c1ccnc(Nc3cccnc3)c1)C2 [Compound 581, (S)—N-(2-hydroxy-3-(6-((4-methyloxazol-5-yl)methoxy)-3,4-dihydroisoquinolin-2(1H)-yl)propyl)-2-(pyridin-3-ylamino)isonicotinamide] |  | 50 to 500 | 1000 to 10000 | B* (an IC50 ratio greater than or equal to 3 fold but lower than 10 fold between the IC50 in the HAP1 MTAP-intact cell line and the HAP1 MTAP-deleted cell line) | 1000 to 10000 | 50 to 500 |  | ≥ 5000 | A (a Ki ratio greater than or equal to 10 fold between the Ki in the presence of SAM and the Ki in the presence of MTA)
O=C(NC[C@H](O)CN1CCc2cc(OCc3cnco3)c(F)c(F)c2C1)c1ccnc(NC2CCC2)c1 [Compound 364, 2-(cyclobutylamino)-N-[(2S)-3-[7,8-difluoro-6-(oxazol-5-ylmethoxy)-3,4-dihydro-1H-isoquinolin-2-yl]-2-hydroxy-propyl]pyridine-4-carboxamide] | ≥ 5000 | 50 to 500 | 1000 to 10000 | C* (an IC50 ratio of less than 3 fold between the IC50 in the HAP1 MTAP-intact cell line and the HAP1 MTAP-deleted cell line) | ≥ 10000 | 50 to 500 | A (a Ki ratio greater than or equal to 10 fold between the Ki in the presence of SAM and the Ki in the presence of MTA) |  | 
CC(C)(C)N1CCN(c2nc(NC3COC3)cc(C(=O)NC[C@H](O)CN3CCc4cc(OCc5cnco5)ccc4C3)n2)CC1 [Compound 373] | 500 to 5000 | 50 to 500 | 1000 to 10000 | B* (an IC50 ratio greater than or equal to 3 fold but lower than 10 fold between the IC50 in the HAP1 MTAP-intact cell line and the HAP1 MTAP-deleted cell line) | ≥ 10000 | 50 to 500 | A (a Ki ratio greater than or equal to 10 fold between the Ki in the presence of SAM and the Ki in the presence of MTA) |  | 
